Values quoted from earlier work in patent US9101541B2 (Cadila Healthcare Limited, priority 2010, dated 2015).

Key:
[1] = oral administration

time to maximum blood concentrations after dosing [1]: 0.5 to 2.3 h
oil and water solubility: poor oil and water solubility
BCS class (Pharmaceutical Research, Vo. 22, No. 1, January 2005, Chi-Yuan Wu et al.): BCS Class 2
SMILES: CO[C@H]1C[C@@H]2CC[C@@H](C)[C@@](O)(O2)C(=O)C(=O)N2CCCC[C@H]2C(=O)O[C@H]([C@H](C)C[C@@H]2CC[C@@H](O)[C@H](OC)C2)CC(=O)[C@H](C)/C=C(\C)[C@@H](O)[C@@H](OC)C(=O)[C@H](C)C[C@H](C)/C=C/C=C/C=C/1C [Sirolimus, (3S,6R,7E,9R,10R,12R,14S,15E,17E,19E,21S,23S,26R,27R,34aS)-9,10,12,13,14,21,22,23,24,25,26,27,32,33,34,34a-hexadecahydro-9,27-dihydroxy-3-[(1R)-2-[(1S,3R,4R)-4-hydroxy-3-methoxycyclohexyl]-1-methylethyl]-10,21-dimethoxy-6,8,12,14,20,26-hexamethyl-23,27-epoxy-3H-pyrido[2,1-c][1,4]oxaazacyclohentriacontine-1,5,11,28,29 (4H,6H,31H)-pentone]
